Test results taken from patent US8618074B2, “GPCR enhanced neuroprotection to treat brain injury” (Board of Regents of the University of Texas System, priority 2007, dated 2013).

How the values were obtained:
astrocytes [1] = assay: Astrocyte survival under t-buOOH oxidative stress in the absence of neurons; type: cell-based, mouse
Procedure: To determine whether P2Y-R enhanced mitochondrial metabolism in astrocytes affected neuronal resistance to oxidative stress, we prepared co-cultures of neurons and astrocytes using corning transwell-clear permeable supports, which physically separates the two cell-types by ˜1 mm (# 07-200-170, Fisher scientific). Primary cultures of astrocytes were directly prepared in transwell supports until they were ˜70% confluent. Mouse cortical neurons were then cultured onto glass bottom mattek plates and maintained in B-27/Neurobasal Medium to control glia contamination to less than 0.5% (Invitrogen). After four days, co-cultures were treated with t-buOOH (100 μM) for 4 hours with and without pre-stimulation of ATP (2 μM, 10 minutes). Cells were then stained with the DNA intercalating dye Hoechst 33342 (10 μg/ml, Molecular Probes, #H-3570) and calcein AM (2 μM, Molecular Probes, #C3100). […] We then tested the neuroprotective affects of isoform specific purinergic ligands 2-MeSADP(P2Y1-R) and UTP(P2Y2-R). FIG. 6A depicts histogram plots of the percentage of neurons alive when cocultured with young or old astrocytes. FIG. 6B depicts histogram plots of the percentage of neurons alive pretreated with either 2-MeSADP (2 μM) or UTP (50 μM) for 10 min. A ten-minute pre-treatment of astrocytes with either 2-MeSADP (2 μM), or UTP (50 μM) was equally protective against oxidative stress induced cell death. The % neurons alive after 4.5 hours of t-buOOH treatment was 51±4% (n=1664 neurons, pooled from 4 experiments) for untreated controls, 70±2% (n=2541 neurons, pooled from 4 experiments) for 2-MeSADP and 71±3% (n=1189 neurons, pooled from 4 experiments) for UTP treated co-cultures. […] The % astrocytes alive after 4.5 hours of t-buOOH treatment, in the absence of neurons, was 60±4% (n=294 cells) for control, 77±4% (n=294) for 2-MeSADP and 79±3% (n=333) for UTP treated astrocytes.
It should be noted that stimulation of neuroprotective response in astrocytes is not restricted to signaling through P2Y receptors. For example we have shown that administration of the membrane permeable IP3 analog, IP3BM, is capable of protecting astrocytes from oxidative damage. Thus, it appears possible that any stimulus capable of evoking IP3-mediated calcium release in astrocytes is equally suitable for application in the present treatment methods. To test this possibility, astrocyte cultures subjected to oxidative stress were treated with either 2-MeSADP, or the metabotropic glutamate receptor agonist (1 S, 3 R)-1-aminocyclopentane-1,3-dicarboxylic acid (ACPD), or were left untreated.
To directly examine the role of IP3 gated Ca^2+ release in P2Y-R enhanced astrocyte protection, we used a membrane permeant butyryloxymethyl ester of IP3 (IP3-BM). Cultures of astrocytes were exposed to IP3-BM and Ca^2+ levels were assessed using 2-photon imaging of Fura 2. Ca^2+ increases in response to IP3-BM application were easily detected, but they occurred over a much slower time course than those initiated by ATP treatment. This was not unexpected because of the slow process of IP3-BM movement across the lipid bilayer as well as the time needed to cleave the ester and accumulate IP3 in the cell. Because of the slower time course, we pretreated astrocytes for 20 minutes prior to exposing them to the oxidant stress t-BuOOH. […] The protective effect of IP3-BM treatment was blocked by the IP3R inhibitor, XeC. […]

astrocytes [2] = assay: Rose Bengal induced blood clot, Fluo4 Ca2+ imaging of astrocytes in live mouse; type: in vivo; conditions: 2-MeSADP co-injected with Rose Bengal in tail vein; blood brain barrier breakdown at clot
Procedure: Our working hypothesis states that P2Y-R activation in astrocytes leads to intracellular Ca^2+ release. […] In this experiment, the Ca^2+ indicator Fluo4-AM was loaded into astrocytes (90 minutes, 100 μM). Rose Bengal (RB) and the P2Y-R specific agonist 2-MeSADP were then co-injected in the tail vein of a live mouse. RB was illuminated with green light (543 nm), inducing reactive singlet oxygen and blood clots. A blood vessel was free flowing at 180 minutes, then clotted around 220 minutes after RB injection. […] More distal astrocytes a4 and a5 were not activated.

[3] = test system: RB-induced cerebral infarcts in the mouse cortex; assay: RB-induced photothrombotic cerebral infarct size, small animal imaging with PE-Cy5.5 anti-CD40; type: in vivo
Procedure: These set of experiments utilizes small animal imaging studies to non-invasively study the impact of G-protein stimulated IP3-gated Ca^2+ release on astrocyte neuroprotection during the aging process. In brief, focal cerebral infarcts are induced using photothrombosis as described in EXAMPLE 8. However, irradiation of the brain with green light is carried out through the cranium with a 10× objective. […] We observe the size of the lesion in subsequent days by taking advantage of an inflammatory response at the lesion, which we label with a fluorescently conjugated antibody to CD40 (PE-Cy5.5-anti-mouse-CD40). […] It has also been reported that the PE-Cy5.5 CD40 antibody localized to activated endothelium at the brain lesion and to blood derived cells of the mononuclear lineage. We have successfully used this approach to image RB-induced brain inflammation in mice with high sensitivity and specificity. […] To carry out these experiments, 3 mice were imaged. On the day of the initial photothrombosis, one mouse was injected with Rose Bengal, one with Rose Bengal and 2-MeSADP and the third mouse was injected only with saline. […] For one set of mice, we re-imaged the mice at day 17 post occlusion and found CD40 labeling undetectable in the 2-MeSADP injected mouse. […] Finally, in one mouse, we also injected a fluorescent dye (IR-820) on day 3 that is a strong indicator of blood brain barrier dysfunction. Accumulation of this dye at the site of a lesion is consistent with a permeant (i.e., compromised) blood brain barrier. As noted above small animal imaging has been successfully employed to progressively follow and measure the size of Rose Bengal (RB)-induced brain infarcts in live mice for over 2 weeks.

SMILES: CSc1nc(N)c2ncn([C@@H]3O[C@H](COP(=O)(O)OP(=O)(O)O)[C@@H](O)[C@H]3O)c2n1 [2-MeSADP]
- % astrocytes alive (astrocytes [1]; absence of neurons, 4.5 hours of t-buOOH, 2-MeSADP or UTP): 77±4%
- astrocyte resistance to oxidative stress (astrocytes [1]; astrocyte cultures subjected to oxidative stress, versus untreated): enhanced
- activation (Ca2+) of astrocytes near the RB-induced clot (astrocytes [2]): activate nearby astrocytes
- size of the cerebral infarct ([3]; 2-MeSADP introduced 24 hours later): reduced
- size of the cerebral infarct ([3]; 2-MeSADP present during the initial photothrombosis (day 0)): reduced
- size of the lesion ([3]; day 3 after cerebral infarction, co-injected with Rose Bengal, versus Rose Bengal or saline alone): significantly smaller
- CD40 labeling ([3]; day 17 post occlusion): undetectable
